# Measurements: patent US7348425B2, “Inhibitors of HCV replication” (Bristol-Myers Squibb Company, priority 2004, dated 2008)
# Read-outs that look alike come from different tables or passages of the source.
# Experiments:
# [1] = biological target: T1, HCV NS5B RdRp genotype 1b (Hepatitis C virus genotype 1b, UniProt Q9WMX2); assay: Standard HCV NS5B RdRp enzyme assay; format: biochemical; details: standard method
# T1 construct: The protein was expressed with an 18 amino acid C-terminal truncation to enhance the solubility; made in house; host or cells: E. coli BL21 (DE3), pET21a
# Procedure: HCVNS5B RdRp cloning, expression, and purification. The cDNA encoding the NS5B protein of HCV, genotype 1b, was cloned into the pET21a expression vector. The protein was expressed with an 18 amino acid C-terminal truncation to enhance the solubility. The E. coli competent cell line BL21 (DE3) was used for expression of the protein. Cultures were grown at 37° C. for ˜4 hours until the cultures reached an optical density of 2.0 at 600 nm. The cultures were cooled to 20° C. and induced with 1 mM IPTG. Fresh ampicillin was added to a final concentration of 50 μg/ml and the cells were grown overnight at 20° C.
# Cell pellets (3 L) were lysed for purification to yield 15-24 mgs of purified NS5B. The lysis buffer consisted of 20 mM Tris-HCl, pH 7.4, 500 mM NaCl, 0.5% triton X-100, 1 mM DTT, 1 mM EDTA, 20% glycerol, 0.5 mg/ml lysozyme, 10 mM MgCl2, 15 ug/ml deoxyribonuclease I, and Complete TM protease inhibitor tablets (Roche). After addition of the lysis buffer, frozen cell pellets were resuspended using a tissue homogenizer. To reduce the viscosity of the sample, aliquots of the lysate were sonicated on ice using a microtip attached to a Branson sonicator. The sonicated lysate was centrifuged at 100,000×g for 1 hr at 4° C. and filtered through a 0.2 μm filter unit (Corning).
# The protein was purified using three sequential chromatography steps: Heparin sepharose CL-6B, polyU sepharose 4B, and Hitrap SP sepharose (Pharmacia). The chromatography buffers were identical to the lysis buffer but contained no lysozyme, deoxyribonuclease I, MgCl2 or protease inhibitor and the NaCl concentration of the buffer was adjusted according to the requirements for charging the protein onto the column. Each column was eluted with a NaCl gradient which varied in length from 5-50 column volumes depending on the column type. After the final chromatography step, the resulting purity of the enzyme is >90% based on SDS-PAGE analysis. The enzyme was aliquoted and stored at −80° C.
# Standard HCV NS5B RdRp enzyme assay. HCV RdRp genotype Ib assays were run in a final volume of 60 μl in 96 well plates (Costar 3912). The assay buffer is composed of 20 mM Hepes, pH 7.5, 2.5 mM KCl, 2.5 mM MgCl2, 1 mM DTT, 1.6 U RNAse inhibitor (Promega N2515), 0.1 mg/ml BSA (Promega R3961), and 2% glycerol. All compounds were serially diluted (3-fold) in DMSO and diluted further in water such that the final concentration of DMSO in the assay was 2%. HCV RdRp genotype 1b enzyme was used at a final concentration of 28 nM. A polyA template was used at 6 nM, and a biotinylated oligo-dT12 primer was used at 180 nM final concentration. Template was obtained commercially (Amersham 27-4110). Biotinylated primer was prepared by Sigma Genosys. ^3H-UTP was used at 0.6 μCi (0.29 μM total UTP). Reactions were initiated by the addition of enzyme, incubated at 30° C. for 60 min, and stopped by adding 25 μl of 50 mM EDTA containing SPA beads (4 μg/μl, Amersham RPNQ 0007). Plates were read on a Packard Top Count NXT after >1 hr incubation at room temperature.
# The IC50 values for compounds were determined using seven different [I]. IC50 values were calculated from the inhibition using the formula y=A+((B−A)/(1+((C/x)^D))). FRET Assay Preparation. To perform the HCV FRET screening assay, 96-well cell culture plates were used. The FRET peptide (Anaspec, Inc.) (Taliani et al., Anal. Biochem. 240:60-67 (1996), hereby incorporated by reference in its entirety) contains a fluorescence donor, EDANS, near one end of the peptide and an acceptor, DABCYL, near the other end. The fluorescence of the peptide is quenched by […] resonance energy transfer (RET) between the donor and the acceptor, but as the NS3 protease cleaves the peptide the products are released from RET quenching and the fluorescence of the donor becomes apparent. […]
# HCV replicon = HCV replicon luciferase assay; format: cell-based, Hepatitis C virus; details: Hepatitis C virus
# Procedure: To prepare plates, HCV replicon cells, with or without a Renilla luciferase reporter gene, were trypsinized and placed into each well of a 96-well plate with titrated test compounds added in columns 3 through 12; columns 1 and 2 contained a control compound (HCV protease inhibitor), and the bottom row contained cells without compound. The plates were then placed in a CO2 incubator at 37 degrees C.
# Assays. Subsequent to addition of the test compounds described above (FRET Assay Preparation), at various times the plate was removed and Alamar blue solution (Trek Diagnostics, #00-100) was added per well as a measure of cellular toxicity. After reading in a Cytoflour 4000 instrument (PE Biosystems), plates were rinsed with PBS and then used for FRET assay by the addition of 30 ul of the FRET peptide assay reagent described above (FRET Assay Preparation) per well. The plate was then placed into the Cytoflour 4000 instrument which had been set to 340 excite/490 emission, automatic mode for 20 cycles and the plate read in a kinetic mode. Typically, the signal to noise using an endpoint analysis after the reads was at least three-fold. Alternatively, after Alamar blue reading, plates were rinsed with PBS, 50 ul of DMEM (high glucose) without phenol red was added and plates were then used for luciferase assay using the Promega Dual-Glo Luciferase Assay System.
# Compound analysis was determined by quantification of the relative HCV replicon inhibition and the relative cytotoxicity values. To calculate cytoxicity values, the average Alamar Blue fluorescence signals from the control wells were set as 100% non-toxic. The individual signals in each of the compound test wells were then divided by the average control signal and multiplied by 100% to determine […]. To calculate the HCV replicon inhibition values, an average background value was obtained from the two wells containing the highest amount of HCV protease inhibitor at the end of the assay period. These numbers were similar to those obtained from naïve Huh-7 cells.
# The background numbers were then subtracted from the average signal obtained from the control wells and this number was used as 100% activity. The individual signals in each of the compound test wells were then divided by the averaged control values after background subtraction and multiplied by 100% to determine percent activity. EC50 values for a protease inhibitor titration were calculated as the concentration which caused a 50% reduction in FRET or luciferase activity. The two numbers generated for the compound plate, percent cytoxicity and percent activity were used to determine compounds of interest for further analysis.
# [2] = biological target: T1, HCV NS5B RdRp genotype 1b; assay: Modified HCV NS5B RdRp enzyme assay (with preincubation); format: biochemical; details: modified method (with preincubation)
# Summary of the method: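 Seven-point IC50s were derived from SPA-based ³H-UTP incorporation after 4 h at 30 °C (Hepes pH 7.5, 2% DMSO). Compound was first mixed with 14 nM Δ18 NS5B genotype 1b enzyme. Then 0.2 nM polyA, 0.29 μM UTP and bead-bound oligo-dT12 (20 nM) were added.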
# [3] = luciferase method, read-out: EC50
# [4] = cells marked **: Luciferase assay, read-out: EC50
# T1 sequence (Q9WMX2 2420-2992): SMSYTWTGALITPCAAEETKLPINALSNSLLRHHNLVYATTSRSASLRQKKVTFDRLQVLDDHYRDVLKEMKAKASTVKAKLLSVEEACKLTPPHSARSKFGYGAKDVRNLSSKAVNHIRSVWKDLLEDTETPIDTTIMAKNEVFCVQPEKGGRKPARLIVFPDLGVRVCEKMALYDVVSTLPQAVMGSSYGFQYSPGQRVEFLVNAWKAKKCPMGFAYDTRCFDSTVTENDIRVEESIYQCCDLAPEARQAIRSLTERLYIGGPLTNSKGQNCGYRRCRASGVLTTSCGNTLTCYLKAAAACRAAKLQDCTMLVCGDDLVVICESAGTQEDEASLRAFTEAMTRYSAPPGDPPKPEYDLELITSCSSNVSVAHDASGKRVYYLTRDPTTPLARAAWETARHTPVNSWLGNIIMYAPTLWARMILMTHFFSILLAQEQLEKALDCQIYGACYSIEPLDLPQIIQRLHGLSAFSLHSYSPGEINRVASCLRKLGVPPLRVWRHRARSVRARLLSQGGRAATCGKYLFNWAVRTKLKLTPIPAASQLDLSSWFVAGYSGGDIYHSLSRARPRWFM
SMILES,EC50 (HCV replicon; [3]),EC50 (HCV replicon; [4]),also measured
COC(=O)/C=C/c1ccc(NC(=O)C2(NC(=O)c3ccc4c(C5CCCCC5)c5n(c4c3)CCOc3ccccc3-5)CCCC2)cc1,–,–,IC50 [1]: > 1 µM
COC(=O)/C=C/c1ccc(NC(=O)C2(NC(=O)c3ccc4c(C5CCCCC5)c5n(c4c3)CCCc3occc3-5)CCCC2)cc1,0.1 to 1 µM,–,–
O=C(O)/C=C/c1ccc(NC(=O)C2(NC(=O)c3ccc4c(C5CCCCC5)c5n(c4c3)CCCc3occc3-5)CCCC2)cc1,< 0.1 µM,–,–
O=C(O)c1ccc2c(C3CCCCC3)c3n(c2c1)CC(C(=O)N1CCN(c2ccncc2)CC1)Cc1ccccc1-3 (centres unmarked),0.1 to 1 µM,–,IC50 [1]: 0.1 to 1 µM
COC(=O)c1ccc2c(C3CCCCC3)c3n(c2c1)CC(C(=O)N1CCN(c2ccncc2)CC1)Cc1ccccc1-3 (centres unmarked),0.1 to 1 µM,–,IC50 [1]: > 1 µM
O=C(O)c1ccc2c(C3CCCCC3)c3n(c2c1)CC(C(=O)N1CCC(O)CC1)Cc1ccccc1-3 (centres unmarked),0.1 to 1 µM,–,IC50 [1]: 0.1 to 1 µM
O=C(O)c1ccc2c(C3CCCCC3)c3n(c2c1)CC(C(=O)N1CCOCC1)=Cc1ccccc1-3,–,–,EC50 (HCV replicon): 0.1 to 1 µM; IC50 [1]: 0.1 to 1 µM
COC(=O)c1ccc2c(C3CCCCC3)c3n(c2c1)CC(C(=O)N1CCOCC1)=Cc1ccccc1-3,1 to 10 µM,–,IC50 [1]: > 1 µM
O=C(O)c1ccc2c(C3CCCCC3)c3n(c2c1)CC(C(=O)N1CCN(c2ccncc2)CC1)=Cc1ccccc1-3,0.1 to 1 µM,–,IC50 [1]: 0.1 to 1 µM
COC(=O)c1ccc2c(C3CCCCC3)c3n(c2c1)CC(C(=O)N1CCN(c2ccncc2)CC1)=Cc1ccccc1-3,1 to 10 µM,–,IC50 [1]: > 1 µM
O=C(O)/C=C/c1ccc(NC(=O)C2(NC(=O)c3ccc4c(C5CCCCC5)c5n(c4c3)CC(C(=O)N3CCOCC3)Cc3ccccc3-5)CCCC2)cc1 (centres unmarked),< 0.1 µM,–,IC50 [1]: 0.1 to 1 µM
O=C(O)/C=C/c1ccc(NC(=O)C2(NC(=O)c3ccc4c(C5CCCCC5)c5n(c4c3)CCCc3ccccc3-5)CCCC2)cc1,–,0.01 to 1 µM,IC50 [2]: 0.02 to 1 µM
CCNC(=O)N(CCCN(C)C)C(=O)c1ccc2c(C3CCCCC3)c3n(c2c1)CCCc1ccccc1-3,–,1 to 10 µM,–
CCOC(=O)/C=C/c1ccc(NC(=O)C2(NC(=O)c3ccc4c(C5CCCCC5)c5n(c4c3)C(OC)c3ccccc3-5)CCCC2)cc1 (centres unmarked),–,1 to 10 µM,–
COC1c2ccccc2-c2c(C3CCCCC3)c3ccc(C(=O)NC4(C(=O)Nc5ccc(/C=C/C(=O)O)cc5)CCCC4)cc3n21 (centres unmarked),–,0.01 to 1 µM,IC50 [2]: 0.02 to 1 µM
Cn1c(-c2ccccc2)c(C2CCCCC2)c2ccc(C(=O)NC3(c4nnnn4CC(=O)O)CCCC3)cc21,–,> 10 µM,–

SMILES,EC50 (HCV replicon; [3]),EC50 (HCV replicon; [4]),also measured
O=C(O)/C=C/c1ccc(NC(=O)C2(NC(=O)c3ccc4c(C5CCCCC5)c5n(c4c3)C/C=C\CNc3ccccc3-5)CCCC2)cc1,–,0.01 to 1 µM,IC50 [2]: 0.02 to 1 µM
COC(=O)c1ccc2c(C3CCCCC3)c3n(c2c1)CC(=O)N3c1ccccc1,–,> 10 µM,–
O=C(O)c1ccc2c(C3CCCCC3)c3n(c2c1)CC(=O)N3c1ccccc1,–,> 10 µM,–
O=C1Cn2c(c(C3CCCCC3)c3ccc(C(=O)O)cc32)N1,–,> 10 µM,–
O=C(O)c1ccc2c(C3CCCCC3)c3n(c2c1)CCOc1ccccc1-3,–,0.01 to 1 µM,–
O=C(O)c1ccc2c(C3CCCCC3)c3n(c2c1)CCCn1ccnc1-3,–,> 10 µM,–
O=C(O)/C=C/c1ccc(NC(=O)C2(NC(=O)c3ccc4c(C5CCCCC5)c5n(c4c3)CCCn3ccnc3-5)CCCC2)cc1,–,1 to 10 µM,IC50 [2]: 0.02 to 1 µM
CCOC(=O)/C=C/c1ccc(NC(=O)C2(N(C)C(=O)c3ccc4c(C5CCCCC5)c5n(c4c3)CCCc3ccccc3-5)CCCC2)cc1,–,1 to 10 µM,IC50 [2]: > 1 µM
COC(=O)c1ccc2c(C3CCCCC3)c3n(c2c1)CC(NC(=O)N1CCOCC1)Cc1ccccc1-3 (centres unmarked),–,1 to 10 µM,–
"COC(=O)c1ccc2c(C3CCCCC3)c3n(c2c1)CC=Cc1ccccc1-3 [Example 1, Methyl 13-cyclohexyl-7H-indolo[2,1-a][2]benzazepine-10-carboxylate]",> 10 µM,–,–
"COC(=O)c1ccc2c(C3CCCCC3)c3n(c2c1)CC=Cc1cc(OCc2ccccc2)ccc1-3 [Example 4, Methyl 13-cyclohexyl-3-benzyloxy-7H-indolo[2,1-a][2]benzazepine-10-carboxylate]",> 10 µM,–,–
"COC(=O)c1ccc2c(C3CCCCC3)c3n(c2c1)CCCc1cc(O)ccc1-3 [Example 5, Methyl 13-cyclohexyl-3-hydroxy-6,7-dihydro-5H-indolo[2,1-a][2]benzazepine-10-carboxylate]",> 10 µM,–,–
"O=C(O)c1ccc2c(C3CCCCC3)c3n(c2c1)CCOc1cccnc1-3 [Example 13, 13-cyclohexyl-6,7-dihydropyrido[2′,3′:6,7][1,4]oxazepino[4,5-a]indole-10-carboxylic acid]",0.1 to 1 µM,–,–
CCOC(=O)c1cc2ccccc2c2c(C3CCCCC3)c3ccc(C(=O)OC)cc3n12 [drawing 141],–,> 10 µM,–
O=C(O)c1ccc2c(C3CCCCC3)c3n(c2c1)CC(C(=O)O)Cc1ccccc1-3 (centres unmarked) [drawing 147],–,> 10 µM,–
